Test results as given in ChEMBL document CHEMBL3045453, “Novel malyngamide structural analogs: synthesis and biological evaluation” (Med Chem Res, 2013).

Test system: PC-3
Assay: Cytotoxicity against Homo sapiens (human) PC3 cells assessed as growth inhibition after 48 hr by trypan blue exclusion assay
Type: functional, cell-based
Conditions: PC-3, 48 h
In the case of `CCCCCCC[C@@H](C/C=C/CCC(=O)NCc1ccc(OC)cc1)OC`, the IC50 is reported as over 100 µM. Work on `CCCCCCC[C@@H](C/C=C/CCC(=O)Nc1ccc(Br)cc1)OC` yielded an IC50 of over 100 µM. Compound `CCCCCCC[C@H](O)C/C=C/CCC(=O)N1CCCCC1` has an IC50 of over 100 µM. With `CCCCCCC[C@H](O)C/C=C/CCC(=O)NCC(C)C` the IC50 was over 100 µM. With `CCCCCCC[C@H](C/C=C/CCC(=O)NCC(C)C)OC` the IC50 was over 100 µM. Compound `CCCCCCC[C@H](O)C/C=C/CCC(=O)NCCc1ccccc1` has an IC50 of over 100 µM. In the case of `CCCCCCC[C@@H](C/C=C/CCC(=O)NCCc1ccccc1)OC` [HERMITAMIDE A], the IC50 is reported as over 100 µM. With `CCCCCCC[C@@H](C/C=C/CCC(=O)NCc1ccc(F)cc1)OC` the IC50 was over 100 µM. With `CCCCCCC[C@@H](C/C=C/CCC(=O)Nc1c(OC)cc(Cl)cc1OC)OC` the IC50 was over 100 µM. Work on `CCCCCCC[C@@H](C/C=C/CCC(=O)N1CCCCC1)OC` yielded an IC50 of over 100 µM.

Test system: IMR-32
Assay: Cytotoxicity against Homo sapiens (human) IMR32 cells assessed as growth inhibition after 48 hr by trypan blue exclusion assay
Type: functional, cell-based
Conditions: IMR-32, 48 h
`CCCCCCC[C@@H](C/C=C/CCC(=O)NCc1ccc(OC)cc1)OC` gave an IC50 of over 100 µM. With `CCCCCCC[C@@H](C/C=C/CCC(=O)Nc1ccc(Br)cc1)OC` the IC50 was over 100 µM. `CCCCCCC[C@H](O)C/C=C/CCC(=O)N1CCCCC1` showed an IC50 of over 100 µM. In the case of `CCCCCCC[C@H](O)C/C=C/CCC(=O)NCC(C)C`, the IC50 is reported as over 100 µM. In the case of `CCCCCCC[C@H](C/C=C/CCC(=O)NCC(C)C)OC`, the IC50 is reported as over 100 µM. Compound `CCCCCCC[C@H](O)C/C=C/CCC(=O)NCCc1ccccc1` has an IC50 of over 100 µM. Compound `CCCCCCC[C@@H](C/C=C/CCC(=O)NCCc1ccccc1)OC` [HERMITAMIDE A] has an IC50 of over 100 µM. In the case of `CCCCCCC[C@@H](C/C=C/CCC(=O)NCc1ccc(F)cc1)OC`, the IC50 is reported as over 100 µM. Compound `CCCCCCC[C@@H](C/C=C/CCC(=O)Nc1c(OC)cc(Cl)cc1OC)OC` has an IC50 of over 100 µM. Work on `CCCCCCC[C@@H](C/C=C/CCC(=O)N1CCCCC1)OC` yielded an IC50 of over 100 µM.

Test system: HeLa
Assay: Cytotoxicity against Homo sapiens (human) HeLa cells assessed as growth inhibition after 48 hr by trypan blue exclusion assay
Type: functional, cell-based
Conditions: not given
`CCCCCCC[C@@H](C/C=C/CCC(=O)NCc1ccc(OC)cc1)OC` showed an IC50 of over 100 µM. In the case of `CCCCCCC[C@@H](C/C=C/CCC(=O)Nc1ccc(Br)cc1)OC`, the IC50 is reported as over 100 µM. `CCCCCCC[C@H](O)C/C=C/CCC(=O)N1CCCCC1` showed an IC50 of over 100 µM. For `CCCCCCC[C@H](O)C/C=C/CCC(=O)NCC(C)C`, the IC50 was over 100 µM. Work on `CCCCCCC[C@H](C/C=C/CCC(=O)NCC(C)C)OC` yielded an IC50 of over 100 µM. Compound `CCCCCCC[C@H](O)C/C=C/CCC(=O)NCCc1ccccc1` has an IC50 of over 100 µM. `CCCCCCC[C@@H](C/C=C/CCC(=O)NCCc1ccccc1)OC` [HERMITAMIDE A] showed an IC50 of over 100 µM. Work on `CCCCCCC[C@@H](C/C=C/CCC(=O)NCc1ccc(F)cc1)OC` yielded an IC50 of over 100 µM. In the case of `CCCCCCC[C@@H](C/C=C/CCC(=O)Nc1c(OC)cc(Cl)cc1OC)OC`, the IC50 is reported as over 100 µM. With `CCCCCCC[C@@H](C/C=C/CCC(=O)N1CCCCC1)OC` the IC50 was over 100 µM.

Test system: SF-295
Assay: Cytotoxicity against Homo sapiens (human) SF295 cells assessed as growth inhibition after 48 hr by trypan blue exclusion assay
Type: functional, cell-based
Conditions: SF-295, 48 h
In the case of `CCCCCCC[C@@H](C/C=C/CCC(=O)NCc1ccc(OC)cc1)OC`, the IC50 is reported as over 100 µM. For `CCCCCCC[C@@H](C/C=C/CCC(=O)Nc1ccc(Br)cc1)OC`, the IC50 was over 100 µM. In the case of `CCCCCCC[C@H](O)C/C=C/CCC(=O)N1CCCCC1`, the IC50 is reported as over 100 µM. With `CCCCCCC[C@H](O)C/C=C/CCC(=O)NCC(C)C` the IC50 was over 100 µM. For `CCCCCCC[C@H](C/C=C/CCC(=O)NCC(C)C)OC`, the IC50 was over 100 µM. `CCCCCCC[C@H](O)C/C=C/CCC(=O)NCCc1ccccc1` showed an IC50 of over 100 µM. `CCCCCCC[C@@H](C/C=C/CCC(=O)NCCc1ccccc1)OC` [HERMITAMIDE A] gave an IC50 of over 100 µM. In the case of `CCCCCCC[C@@H](C/C=C/CCC(=O)NCc1ccc(F)cc1)OC`, the IC50 is reported as over 100 µM. Work on `CCCCCCC[C@@H](C/C=C/CCC(=O)Nc1c(OC)cc(Cl)cc1OC)OC` yielded an IC50 of over 100 µM. Work on `CCCCCCC[C@@H](C/C=C/CCC(=O)N1CCCCC1)OC` yielded an IC50 of over 100 µM.

Test system: SK-N-SH
Assay: Cytotoxicity against Homo sapiens (human) SK-N-SH cells assessed as growth inhibition after 48 hr by trypan blue exclusion assay
Type: functional, cell-based
Conditions: not given
`CCCCCCC[C@@H](C/C=C/CCC(=O)NCc1ccc(OC)cc1)OC` gave an IC50 of over 100 µM. For `CCCCCCC[C@@H](C/C=C/CCC(=O)Nc1ccc(Br)cc1)OC`, the IC50 was 65.7 µM. `CCCCCCC[C@H](O)C/C=C/CCC(=O)N1CCCCC1` gave an IC50 of 100 µM. With `CCCCCCC[C@H](O)C/C=C/CCC(=O)NCC(C)C` the IC50 was over 100 µM. `CCCCCCC[C@H](C/C=C/CCC(=O)NCC(C)C)OC` showed an IC50 of over 100 µM. `CCCCCCC[C@H](O)C/C=C/CCC(=O)NCCc1ccccc1` gave an IC50 of 164 µM. Work on `CCCCCCC[C@@H](C/C=C/CCC(=O)NCCc1ccccc1)OC` [HERMITAMIDE A] yielded an IC50 of over 100 µM. `CCCCCCC[C@@H](C/C=C/CCC(=O)NCc1ccc(F)cc1)OC` gave an IC50 of over 100 µM. For `CCCCCCC[C@@H](C/C=C/CCC(=O)Nc1c(OC)cc(Cl)cc1OC)OC`, the IC50 was over 100 µM. Compound `CCCCCCC[C@@H](C/C=C/CCC(=O)N1CCCCC1)OC` has an IC50 of over 100 µM.

Test system: not listed separately
Assay: Cytotoxicity against Homo sapiens (human) 502713 cells assessed as growth inhibition after 48 hr by trypan blue exclusion assay
Type: functional, cell-based
Conditions: Homo sapiens, 502713, 48 h
`CCCCCCC[C@@H](C/C=C/CCC(=O)NCc1ccc(OC)cc1)OC` gave an IC50 of over 100 µM. With `CCCCCCC[C@@H](C/C=C/CCC(=O)Nc1ccc(Br)cc1)OC` the IC50 was over 100 µM. Compound `CCCCCCC[C@H](O)C/C=C/CCC(=O)N1CCCCC1` has an IC50 of over 100 µM. In the case of `CCCCCCC[C@H](O)C/C=C/CCC(=O)NCC(C)C`, the IC50 is reported as over 100 µM. In the case of `CCCCCCC[C@H](C/C=C/CCC(=O)NCC(C)C)OC`, the IC50 is reported as over 100 µM. For `CCCCCCC[C@H](O)C/C=C/CCC(=O)NCCc1ccccc1`, the IC50 was over 100 µM. Compound `CCCCCCC[C@@H](C/C=C/CCC(=O)NCCc1ccccc1)OC` [HERMITAMIDE A] has an IC50 of over 100 µM. In the case of `CCCCCCC[C@@H](C/C=C/CCC(=O)NCc1ccc(F)cc1)OC`, the IC50 is reported as over 100 µM. `CCCCCCC[C@@H](C/C=C/CCC(=O)Nc1c(OC)cc(Cl)cc1OC)OC` showed an IC50 of 64.1 µM. `CCCCCCC[C@@H](C/C=C/CCC(=O)N1CCCCC1)OC` gave an IC50 of over 100 µM.

Test system: HOP-62
Assay: Cytotoxicity against Homo sapiens (human) HOP62 cells assessed as growth inhibition after 48 hr by trypan blue exclusion assay
Type: functional, cell-based
Conditions: HOP-62, 48 h
`CCCCCCC[C@@H](C/C=C/CCC(=O)NCc1ccc(OC)cc1)OC` gave an IC50 of over 100 µM. Work on `CCCCCCC[C@@H](C/C=C/CCC(=O)Nc1ccc(Br)cc1)OC` yielded an IC50 of 174 µM. Work on `CCCCCCC[C@H](O)C/C=C/CCC(=O)N1CCCCC1` yielded an IC50 of over 100 µM. `CCCCCCC[C@H](O)C/C=C/CCC(=O)NCC(C)C` gave an IC50 of over 100 µM. Work on `CCCCCCC[C@H](C/C=C/CCC(=O)NCC(C)C)OC` yielded an IC50 of over 100 µM. In the case of `CCCCCCC[C@H](O)C/C=C/CCC(=O)NCCc1ccccc1`, the IC50 is reported as over 100 µM. Compound `CCCCCCC[C@@H](C/C=C/CCC(=O)NCCc1ccccc1)OC` [HERMITAMIDE A] has an IC50 of over 100 µM. For `CCCCCCC[C@@H](C/C=C/CCC(=O)NCc1ccc(F)cc1)OC`, the IC50 was over 100 µM. `CCCCCCC[C@@H](C/C=C/CCC(=O)Nc1c(OC)cc(Cl)cc1OC)OC` showed an IC50 of over 100 µM. `CCCCCCC[C@@H](C/C=C/CCC(=O)N1CCCCC1)OC` showed an IC50 of over 100 µM.

Test system: SW-620
Assay: Cytotoxicity against Homo sapiens (human) SW620 cells assessed as growth inhibition after 48 hr by trypan blue exclusion assay
Type: functional, cell-based
Conditions: SW-620, 48 h
In the case of `CCCCCCC[C@@H](C/C=C/CCC(=O)NCc1ccc(OC)cc1)OC`, the IC50 is reported as over 100 µM. Compound `CCCCCCC[C@@H](C/C=C/CCC(=O)Nc1ccc(Br)cc1)OC` has an IC50 of over 100 µM. Compound `CCCCCCC[C@H](O)C/C=C/CCC(=O)N1CCCCC1` has an IC50 of over 100 µM. Compound `CCCCCCC[C@H](O)C/C=C/CCC(=O)NCC(C)C` has an IC50 of over 100 µM. `CCCCCCC[C@H](C/C=C/CCC(=O)NCC(C)C)OC` showed an IC50 of over 100 µM. `CCCCCCC[C@H](O)C/C=C/CCC(=O)NCCc1ccccc1` showed an IC50 of over 100 µM. In the case of `CCCCCCC[C@@H](C/C=C/CCC(=O)NCCc1ccccc1)OC` [HERMITAMIDE A], the IC50 is reported as over 100 µM. Compound `CCCCCCC[C@@H](C/C=C/CCC(=O)NCc1ccc(F)cc1)OC` has an IC50 of over 100 µM. `CCCCCCC[C@@H](C/C=C/CCC(=O)Nc1c(OC)cc(Cl)cc1OC)OC` gave an IC50 of over 100 µM. In the case of `CCCCCCC[C@@H](C/C=C/CCC(=O)N1CCCCC1)OC`, the IC50 is reported as over 100 µM.
